In patent publication US9365833B2, “Leucine zipper variant and use thereof” (Samsung Electronics Co., Ltd., priority 2013, dated 2016):

Test system: skin cancer cell line A-431
Assay: cancer cell growth inhibition (CellTiter-Glo cell viability)
Type: cell-based
Conditions: mutant p53 expression, up to 15 μM, 5 days; FIG. 11
Description: The leucine zipper variant p53LZ2 was evaluated for anticancer activity against the osteosarcoma cell line SJSA-1 (ATCC), the breast cancer cell line MCF7 (ATCC), and the skin cancer cell line A-431 (ATCC), the first two expressing wild-type p53 and the other expressing mutant p53.
Each of the cell lines was seeded at a density of 1×10^3 cells/well in 10% FBS-supplemented RPMI (Gibco) or DMEM (Gibco) into 96-well plates. The next day, the leucine zipper variant (TAT-p53LZ2; TAT (RKKRRQRRR; SEQ ID NO: 5) linked to the N-terminus of p53LZ2, constructed in Example 1) or Nutlin-3 (Sigma) was added at a concentration of 0, 0.59, 0.88, 1.32, 1.98, 2.96, 4.44, 6.67, 10, or 15 μM (increasing by 1.5 fold) in an amount of 100 μL to each well before the cells were cultured for 5 days at 37° C. in an 5% CO2 incubator. To each well was added 80 μL of CellTiter-Glo reagent (Promega), followed by measuring luminescence on EnVision Multilabel Reader (PerkinElmer) to examine cell viability.

In the case of COc1ccc(C2=N[C@@H](c3ccc(Cl)cc3)[C@@H](c3ccc(Cl)cc3)N2C(=O)N2CCNC(=O)C2)c(OC(C)C)c1 [Nutlin-3], the “cytotoxicity in A431 cell line” value is reported as “failed to exert cytotoxicity”.
